Measurements taken from patent US10654853B2, “Spiro-condensed pyrrolidine derivatives as deubiquitylating enzymes (DUB) inhibitors” (MISSION THERAPEUTICS LIMITED, priority 2016, dated 2020).
Read-outs that look alike come from different tables or passages of the source.

Biological target: Cezanne 1 (Homo sapiens (Human), UniProt Q6GQQ9)
Test: Cezanne 1 biochemical IC50 assay (fluorescence polarisation, TAMRA labelled peptide linked to ubiquitin)
Experimental: The Cezanne 1 construct was PCR amplified and cloned into a pFLAG-CMV-6c vector (Sigma-Aldrich) with an N-terminal FLAG tag. HEK293T cells were transfected with FLAG-Cezanne 1 using TransIT-LT1 transfection reagent (Mirus) according to the manufacturer's instructions. Cells were harvested 48 hours after transfection. […] The resin was washed two times with low salt buffer and one time with high salt buffer (20 mM Tris, pH 7.5, 500 mM NaCl, 0.5 mM EDTA, 5 mM beta-mercaptoethanol, protease inhibitors (complete mini, Roche) and phosphatase inhibitors (PhosSTOP mini, Roche). To elute the bound Cezanne 1, elution buffer (10 mM Tris, pH 7.5, 150 mM NaCl, 0.5 mM EDTA, 10% glycerol, 0.5% NP40, 5 mM beta-mercaptoethanol, 0.15 mg/ml 3× FLAG peptide (Sigma-Aldrich)) was added to the resin and incubated at 4° C. for 2.5 hours while rotating. The resin was centrifuged at 4000 rpm for 30 seconds, and the supernatant containing purified FLAG-Cezanne 1 was removed and stored at −80° C. […] Dilution plates were prepared at 21 times the final concentration (2100 μM for a final concentration of 100 μM) in 50% DMSO in a 96-well polypropylene V-bottom plate (Greiner #651201). […] Reactions were performed in duplicate in black 384 well plates (small volume, Greiner 784076) in a final reaction volume of 21 μl. Either 1 μl of 50% DMSO or diluted compound was added to the plate. Cezanne 1 was diluted in reaction buffer (40 mM Tris, pH 7.5, 0.005% Tween 20, 0.5 mg/ml BSA, 5 mM—beta-mercaptoethanol) to the equivalent of 0.005 μl/well and 10 μl of diluted Cezanne 1 was added to the compound. Enzyme and compound were incubated for 30 min at room temp. Reactions were initiated by the addition of 50 nM of TAMRA labelled peptide linked to ubiquitin via an iso-peptide bond as fluorescence polarisation substrate. Reactions were read immediately after addition of substrate and following a 2 hr incubation at room temperature. Readings were performed on a Pherastar Plus (BMG Labtech). λ Excitation 540 nm; λ Emission 590 nm.

[1] = Cezanne 1 biochemical IC50 assay, 30 min pre-incubation, read after 2 hr at room temperature, read-out: IC50 range

Chain of Cezanne 1 (Q6GQQ9 whole entry): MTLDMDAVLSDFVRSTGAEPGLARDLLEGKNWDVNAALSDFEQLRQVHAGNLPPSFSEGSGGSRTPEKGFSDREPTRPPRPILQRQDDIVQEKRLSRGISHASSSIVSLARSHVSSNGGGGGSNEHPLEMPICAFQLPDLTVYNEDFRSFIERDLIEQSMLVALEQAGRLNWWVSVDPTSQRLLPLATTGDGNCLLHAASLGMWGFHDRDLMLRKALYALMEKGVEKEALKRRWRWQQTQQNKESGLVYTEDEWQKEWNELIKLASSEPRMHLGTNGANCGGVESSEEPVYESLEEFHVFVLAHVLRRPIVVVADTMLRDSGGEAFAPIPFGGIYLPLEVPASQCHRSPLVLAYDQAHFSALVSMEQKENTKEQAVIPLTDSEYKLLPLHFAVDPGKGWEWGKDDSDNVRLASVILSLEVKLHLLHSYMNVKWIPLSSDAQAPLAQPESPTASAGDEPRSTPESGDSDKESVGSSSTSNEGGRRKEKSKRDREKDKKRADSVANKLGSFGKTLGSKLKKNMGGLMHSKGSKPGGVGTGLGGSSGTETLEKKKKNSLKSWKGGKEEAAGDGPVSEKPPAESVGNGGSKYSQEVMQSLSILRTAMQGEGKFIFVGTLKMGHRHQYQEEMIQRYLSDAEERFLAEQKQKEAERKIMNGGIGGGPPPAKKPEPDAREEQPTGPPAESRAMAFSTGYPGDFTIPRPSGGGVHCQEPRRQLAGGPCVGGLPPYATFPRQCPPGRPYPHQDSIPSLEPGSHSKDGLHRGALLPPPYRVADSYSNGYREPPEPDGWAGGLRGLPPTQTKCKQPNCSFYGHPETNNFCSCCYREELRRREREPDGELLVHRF

Row | Compound | IC50 [1] | IC50
1 | N#CN1CCC2(C1)Nc1nc(C(F)(F)F)ccc1NC2=O (stereo not drawn) [Example 56, 2-Oxo-6-(trifluoromethyl)-1,4-dihydro-2H-spiro[pyrido[2,3-b]pyrazine-3,3′-pyrrolidine]-1′-carbonitrile] | 1000 to 10000 nM | –
2 | Cn1cc(-c2ccc3c(c2)CC2(CCN(C#N)C2)C(=O)N3)cn1 (stereo not drawn) [Example 97, 6′-(1-Methyl-1H-pyrazol-4-yl)-2′-oxo-1′,4′-dihydro-2′H-spiro[pyrrolidine-3,3′-quinoline]-1-carbonitrile] | 100 to 1000 nM | –
3 | N#Cc1ccc(-c2ccc3c(c2)CC2(CCN(C#N)C2)C(=O)N3)cc1 (stereo not drawn) [Example 42, 6′-(4-Cyanophenyl)-2′-oxo-1′,4′-dihydro-2′H-spiro[pyrrolidine-3,3′-quinoline]-1-carbonitrile] | 100 to 1000 nM | –
4 | N#CN1CCC2(Cc3ccc(-c4cncnc4)cc3NC2=O)C1 (stereo not drawn) [Example 28, 2′-Oxo-7′-(pyrimidin-5-yl)-1′,4′-dihydro-2′H-spiro[pyrrolidine-3,3′-quinoline]-1-carbonitrile] | 100 to 1000 nM | –
5 | CN(C)C(=O)c1cccc(-c2ccc3c(c2)NC(=O)C2(CCN(C#N)C2)C3)c1 (stereo not drawn) [Example 30, 3-(1-Cyano-2′-oxo-1′,4′-dihydro-2′H-spiro[pyrrolidine-3,3′-quinolin]-7′-yl)-N,N-dimethylbenzamide] | 100 to 1000 nM | –
6 | CNC(=O)c1ccc(-c2ccc3c(c2)CC2(CCN(C#N)C2)C(=O)N3)cc1 (stereo not drawn) [Example 100, 4-(1-Cyano-2′-oxo-1′,4′-dihydro-2′H-spiro[pyrrolidine-3,3′-quinolin]-6′-yl)-N-methylbenzamide] | 100 to 1000 nM | –
7 | N#CN1CCC2(Cc3ccc(-c4cc(OC(F)(F)F)ccc4Cl)cc3NC2=O)C1 (stereo not drawn) [Example 14, 7′-(2-Chloro-5-(trifluoromethoxy)phenyl)-2′-oxo-1′,4′-dihydro-2′H-spiro[pyrrolidine-3,3′-quinoline]-1-carbonitrile] | 1000 to 10000 nM | –
8 | Cc1n[nH]c(C)c1-c1ccc2c(c1)NC(=O)C1(CCN(C#N)C1)C2 (stereo not drawn) [Example 33, 7′-(3,5-Dimethyl-1H-pyrazol-4-yl)-2′-oxo-1′,4′-dihydro-2′H-spiro[pyrrolidine-3,3′-quinoline]-1-carbonitrile] | 1000 to 10000 nM | –
9 | N#CN1CCC2(C1)Oc1ncccc1NC2=O (stereo not drawn) [Example 48, 2-Oxo-1,2-dihydrospiro[pyrido[2,3-b][1,4]oxazine-3,3′-pyrrolidine]-1′-carbonitrile] | 100 to 1000 nM | –
10 | N#Cc1cccc(-c2cnc3c(c2)NC(=O)[C@@]2(CCN(C#N)C2)O3)c1 [Example 71, (S)-7-(3-Cyanophenyl)-2-oxo-1,2-dihydrospiro[pyrido[2,3-b][1,4]oxazine-3,3′-pyrrolidine]-1′-carbonitrile] | 100 to 1000 nM | –
11 | CNC(=O)c1ccc2c(c1)NC(=O)C1(CCN(C#N)C1)C2 (stereo not drawn) [Example 47, 1-Cyano-N-methyl-2′-oxo-1′,4′-dihydro-2′H-spiro[pyrrolidine-3,3′-quinoline]-7′-carboxamide] | 1000 to 10000 nM | –
12 | Cc1n[nH]cc1-c1ccc2c(c1)NC(=O)C1(CCN(C#N)C1)C2 (stereo not drawn) [Example 27, 7′-(3-Methyl-1H-pyrazol-4-yl)-2′-oxo-1′,4′-dihydro-2′H-spiro[pyrrolidine-3,3′-quinoline]-1-carbonitrile] | 1000 to 10000 nM | –
13 | N#CN1CCC2(Cc3ccc(-c4cccc(S(=O)(=O)N5CCOCC5)c4)cc3NC2=O)C1 (stereo not drawn) [Example 38, 7′-(3-(Morpholinosulfonyl)phenyl)-2′-oxo-1′,4′-dihydro-2′H-spiro[pyrrolidine-3,3′-quinoline]-1-carbonitrile] | 1000 to 10000 nM | –
14 | N#Cc1ccc(-c2cnc3c(c2)NC(=O)C2(CCN(C#N)C2)O3)cc1 (stereo not drawn) [Example 50, 7-(4-Cyanophenyl)-2-oxo-1,2-dihydrospiro[pyrido[2,3-b][1,4]oxazine-3,3′-pyrrolidine]-1′-carbonitrile] | 100 to 1000 nM | –
15 | N#CN1CCC2(C1)Oc1nc(C(=O)Nc3ccccc3)ccc1NC2=O (stereo not drawn) [Example 143, 1′-Cyano-2-oxo-N-phenyl-1,2-dihydrospiro[pyrido[2,3-b][1,4]oxazine-3,3′-pyrrolidine]-6-carboxamide] | 100 to 1000 nM | –
16 | Cn1ncc2cc(-c3ccc4c(c3)CC3(CCN(C#N)C3)C(=O)N4)ccc21 (stereo not drawn) [Example 107, 6′-(1-Methyl-1H-indazol-5-yl)-2′-oxo-1′,4′-dihydro-2′H-spiro[pyrrolidine-3,3′-quinoline]-1-carbonitrile] | 100 to 1000 nM | –
17 | CN(C)C(=O)c1ccc2c(c1)NC(=O)C1(CCN(C#N)C1)C2 (stereo not drawn) [Example 46, 1-Cyano-N,N-dimethyl-2′-oxo-1′,4′-dihydro-2′H-spiro[pyrrolidine-3,3′-quinoline]-7′-carboxamide] | 1000 to 10000 nM | –

Row | Compound | IC50 [1] | IC50
18 | N#Cc1ccc(-c2cnc3c(c2)NC(=O)[C@@]2(CCN(C#N)C2)O3)cc1 [Example 70, (S)-7-(4-Cyanophenyl)-2-oxo-1,2-dihydrospiro[pyrido[2,3-b][1,4]oxazine-3,3′-pyrrolidine]-1′-carbonitrile] | 100 to 1000 nM | –
19 | N#CN1CCC2(C1)Oc1nc(C(=O)Nc3ccccc3F)ccc1NC2=O (stereo not drawn) [Example 144, 1′-Cyano-N-(2-fluorophenyl)-2-oxo-1,2-dihydrospiro[pyrido[2,3-b][1,4]oxazine-3,3′-pyrrolidine]-6-carboxamide] | 100 to 1000 nM | –
20 | CNC(=O)c1ccc(-c2ccc3c(c2)NC(=O)C2(CCN(C#N)C2)C3)cc1 (stereo not drawn) [Example 17, 4-(1-Cyano-2′-oxo-1′,4′-dihydro-2′H-spiro[pyrrolidine-3,3′-quinolin]-7′-yl)-N-methylbenzamide] | 1000 to 10000 nM | –
21 | N#CN1CCC2(C1)Oc1ncc(-c3cccc(F)c3)cc1NC2=O (stereo not drawn) [Example 53, 7-(3-Fluorophenyl)-2-oxo-1,2-dihydrospiro[pyrido[2,3-b][1,4]oxazine-3,3′-pyrrolidine]-1′-carbonitrile] | 100 to 1000 nM | –
22 | C[C@@H]1NC(=O)C2(CCN(C#N)C2)NC1=O (stereo partly drawn) [Example 78, (8S)-8-Methyl-7,10-dioxo-2,6,9-triazaspiro[4.5]decane-2-carbonitrile] | 1000 to 10000 nM | –
23 | CN(C)C(=O)c1cccc(-c2ccc3c(c2)CC2(CCN(C#N)C2)C(=O)N3)c1 (stereo not drawn) [Example 130, 3-(1-Cyano-2′-oxo-1′,4′-dihydro-2′H-spiro[pyrrolidine-3,3′-quinolin]-6′-yl)-N,N-dimethylbenzamide] | 100 to 1000 nM | –
24 | N#CN1CCC2(Cc3cc(-c4cccc(NS(=O)(=O)C5CC5)c4)ccc3NC2=O)C1 (stereo not drawn) [Example 109, N-(3-(1-Cyano-2′-oxo-1′,4′-dihydro-2′H-spiro[pyrrolidine-3,3′-quinolin]-6′-yl)phenyl)cyclopropanesulfonamide] | 100 to 1000 nM | –
25 | N#CN1CCC2(C1)Oc1nc(C(=O)Nc3ccc(F)cc3)ccc1NC2=O (stereo not drawn) [Example 141, 1′-Cyano-N-(4-fluorophenyl)-2-oxo-1,2-dihydrospiro[pyrido[2,3-b][1,4]oxazine-3,3′-pyrrolidine]-6-carboxamide] | 1000 to 10000 nM | –
26 | N#CN1CCC2(Cc3ccc(Cl)cc3NC2=O)C1 (stereo not drawn) [Example 2, 7′-Chloro-2′-oxo-1′,4′-dihydro-2′H-spiro[pyrrolidine-3,3′-quinoline]-1-carbonitrile] | – | 1000 to 10000 nM
27 | CN1CCN(C(=O)c2ccc(-c3ccc4c(c3)CC3(CCN(C#N)C3)C(=O)N4)cc2)CC1 (stereo not drawn) [Example 106, 6′-(4-(4-Methylpiperazine-1-carbonyl)phenyl)-2′-oxo-1′,4′-dihydro-2′H-spiro[pyrrolidine-3,3′-quinoline]-1-carbonitrile] | 1000 to 10000 nM | –
28 | N#CN1CCC2(C1)Oc1ncc(-c3cccc4[nH]ncc34)cc1NC2=O (stereo not drawn) [Example 135, 7-(1H-Indazol-4-yl)-2-oxo-1,2-dihydrospiro[pyrido[2,3-b][1,4]oxazine-3,3′-pyrrolidine]-1′-carbonitrile] | < 100 nM | –
29 | N#CN1CCC2(Cc3cc(-c4ccc(CN5CCOCC5)cc4)ccc3NC2=O)C1 (stereo not drawn) [Example 129, 6′-(4-(Morpholinomethyl)phenyl)-2′-oxo-1′,4′-dihydro-2′H-spiro[pyrrolidine-3,3′-quinoline]-1-carbonitrile] | 100 to 1000 nM | –
30 | N#CN1CCC2(C1)OCc1ccccc1NC2=O (stereo not drawn) [Example 85, 2-Oxo-1,5-dihydro-2H-spiro[benzo[e][1,4]oxazepine-3,3′-pyrrolidine]-1′-carbonitrile] | 1000 to 10000 nM | –
31 | Cc1nc2cc(-c3ccc4c(c3)CC3(CCN(C#N)C3)C(=O)N4)ccc2s1 (stereo not drawn) [Example 123, 6′-(2-Methylbenzo[d]thiazol-5-yl)-2′-oxo-1′,4′-dihydro-2′H-spiro[pyrrolidine-3,3′-quinoline]-1-carbonitrile] | 100 to 1000 nM | –
32 | Cn1nccc1-c1ccc2c(c1)CC1(CCN(C#N)C1)C(=O)N2 (stereo not drawn) [Example 94, 6′-(1-Methyl-1H-pyrazol-5-yl)-2′-oxo-1′,4′-dihydro-2′H-spiro[pyrrolidine-3,3′-quinoline]-1-carbonitrile] | 100 to 1000 nM | –
33 | N#CN1CCC2(Cc3ccc(-c4ccc(Oc5ccccc5)cc4)cc3NC2=O)C1 (stereo not drawn) [Example 11, 2′-Oxo-7′-(4-phenoxyphenyl)-1′,4′-dihydro-2′H-spiro[pyrrolidine-3,3′-quinoline]-1-carbonitrile] | 1000 to 10000 nM | –
